Data as given in article PMC7693775, “AGTR1 Is Overexpressed in Neuroendocrine Neoplasms, Regulates Secretion and May Potentially Serve as a Target for Molecular Imaging and Therapy” (Cancers, 2020).
Where two headings read alike, the source gives them in different places.

Columns and labels:
[1] = test system: BON cells; format: cell-based, human; conditions: for effect on ATII-induced calcium signal: BON cells, preincubation 15-30 min before ATII (valsartan, PD123319: 1 µM)
[2] = test system: BON cells; experiment: serotonin ELISA of cell supernatants; format: cell-based, human; conditions: 1 µM, 6 h
Procedure: (§1) If not indicated otherwise, cell culture reagents were obtained from Biochrom AG (Berlin, Germany). The human NEN cell lines BON and QGP-1 (pancreatic), LCC-18 (colonic), H727 and UMC-11 (pulmonary) and all other cell lines were cultured in RPMI 1640 supplemented with 10 % fetal calf serum in a humidified atmosphere at 37 °C and 5% CO2. BON cells were a kind gift of Courtney Townsend (University of Texas, Galveston, TX, USA). LCC-18 were kindly donated by Kjell Ö berg (University of Uppsala, Uppsala, Sweden) and KRJ-1 by Dr. Irvin Modlin (Yale University, New Haven, CT, USA). QGP-1 were obtained from the Japanese Collection of Research Bioresources.
(§2) All other cell lines were obtained from Cell Line Services (Heidelberg, Germany), DSMZ (Braunschweig, Germany) or ATCC (Manassas, VA, USA). Cells were cultured for no more than 20 passages. Mycoplasma testing was done at least every six months. Cell lines were authenticated by STR analysis at DSMZ (Braunschweig, Germany). Due to the lack of reference profiles for BON and LCC-18, their respective STR profile was characterized as unique and not contamina ted with any […]
(§3) Table 1. STR profiling data for BON and LCC -18 cells.
(§4) Experiments in 96-well format were performed as previously described (18). […]

[3] = molecular target: T1, AGTR1 (Homo sapiens, UniProt P30556); experiment: competition binding with 125I-ATII, BON cells
T1 sequence (P30556 1-359): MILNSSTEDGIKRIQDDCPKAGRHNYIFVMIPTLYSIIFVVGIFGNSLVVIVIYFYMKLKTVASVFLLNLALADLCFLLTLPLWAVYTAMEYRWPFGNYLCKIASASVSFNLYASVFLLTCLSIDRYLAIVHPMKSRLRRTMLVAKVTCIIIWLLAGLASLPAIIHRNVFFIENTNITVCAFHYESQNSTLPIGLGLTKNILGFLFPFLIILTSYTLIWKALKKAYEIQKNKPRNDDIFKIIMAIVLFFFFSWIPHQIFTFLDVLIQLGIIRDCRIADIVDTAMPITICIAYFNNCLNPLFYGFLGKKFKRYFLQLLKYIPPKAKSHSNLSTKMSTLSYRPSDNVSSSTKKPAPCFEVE
Procedure: (§5) The Boc-protected ITCC dye (69 mg) was dissolved in DCM (3.0 mL) and subjected to deprotection by addition of TFA (300 µL). The reaction mixture was stirred for 2 h, the solvent removed under reduced pressure and the mixture codistilled with DCM several times to remove […]
(§6) TFA. […] MS (ESI): C39H51N4NaO7S2
(§7) 2.2 eq.) and DIPEA (7.2 µL, 42 µmol, 4.7 eq.) and the reaction mixture stirred for 1 h. The deprotected ITCC dye (8.0 mg, 9.0 µmol, 1.0 eq.) was dissolved in DMF (125 µL) with DIPEA (3.6 µL, 21 µmol, 2.3 eq.) and added to the reaction mixture which was stirred for additional 17 h. The mixture was precipitated from Et2O and the precipitate purified via flash chromatography (DCM/MeOH) to afford […]
(§8) Peptide iodination was performed as previously described [ 1 ].
(§9) (Sigma, Deisenhofen, Germany) were iodinated with 1 mCi carrier -free Na 125 I (NEZ033L010MC, Perkin Elmer, Waltham, MA, USA) and purified by HPLC (Analyt ic HPLC 1200 Series, Agilent, Santa Clara, CA, USA; see Figure S1 in supplementary material). The method for the competitive binding assay was described in detail before. For saturation experiments, binding buffer was prepared […]
(§10) of additional unlabeled peptide (total binding). Non -specific binding was subtracted from total binding to obtain spec ific binding. […]

[4] = molecular target: T1, AGTR1; experiment: competition binding with 125I-ATII, H727 cells
Procedure: as §5, §6, §7, §8, §9, §10

[5] = test system: H727 cells; experiment: intracellular calcium mobilization assay; format: cell-based, human; conditions: preincubation 15-30 min before ATII (valsartan, PD123319: 1 µM)
Procedure: as §1, §2, §3, §4

[6] = molecular target: T2, ATII receptor (AGTR1, AGTR2) (Homo sapiens, UniProt P30556); experiment: in vitro receptor autoradiography of tissue cryosections; format: binding; conditions: 1 µM competitor
T2 construct: Consecutive cryosections of each tissue were incubated with the radioligand in the absence or presence of an excess of non-labeled ATII; from tissue; host or cells: flash-frozen cryosections of patient pancreatic and small-intestinal NEN and of control pancreas, small intestine and liver
T2 sequence (P30556 1-359): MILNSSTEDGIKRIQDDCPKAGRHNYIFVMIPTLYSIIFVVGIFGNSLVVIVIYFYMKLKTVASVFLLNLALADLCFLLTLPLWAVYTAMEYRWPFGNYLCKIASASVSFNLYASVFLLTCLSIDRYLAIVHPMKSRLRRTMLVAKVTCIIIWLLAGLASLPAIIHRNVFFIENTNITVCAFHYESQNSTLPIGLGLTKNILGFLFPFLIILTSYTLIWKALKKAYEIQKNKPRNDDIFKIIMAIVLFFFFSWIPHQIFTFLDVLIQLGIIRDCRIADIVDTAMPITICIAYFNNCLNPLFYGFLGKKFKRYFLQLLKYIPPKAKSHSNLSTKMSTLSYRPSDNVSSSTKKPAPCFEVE

[7] = molecular target: T3, ATII receptor (AGTR1, AGTR2) (Homo sapiens, UniProt P50052); experiment: as above; format: binding; conditions: normal pancreas; 1 µM competitor
T3 construct: Consecutive cryosections of each tissue were incubated with the radioligand in the absence or presence of an excess of non-labeled ATII; from tissue; host or cells: flash-frozen cryosections of patient pancreatic and small-intestinal NEN and of control pancreas, small intestine and liver
T3 sequence (P50052 1-363): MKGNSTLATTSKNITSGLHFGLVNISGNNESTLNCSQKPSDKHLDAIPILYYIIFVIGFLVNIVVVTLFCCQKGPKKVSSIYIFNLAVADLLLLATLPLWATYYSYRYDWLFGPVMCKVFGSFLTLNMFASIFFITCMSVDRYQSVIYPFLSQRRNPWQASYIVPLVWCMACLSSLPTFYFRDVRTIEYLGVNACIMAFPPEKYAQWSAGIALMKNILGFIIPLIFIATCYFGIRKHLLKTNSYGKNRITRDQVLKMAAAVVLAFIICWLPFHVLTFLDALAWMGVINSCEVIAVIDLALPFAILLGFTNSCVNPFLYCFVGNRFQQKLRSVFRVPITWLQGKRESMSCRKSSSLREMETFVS

[8] = test system: BON cells; experiment: chromogranin A ELISA of cell supernatants; format: cell-based, human; conditions: 10 µM preincubation 15 min, 100 nM ATII
Procedure: as §1, §2, §3, §4

[9] = test system: BON cells; experiment: metabolic activity (AlamarBlue); format: cell-based, human; conditions: 96 h, different concentrations
Procedure: (§11) filter paper and measured in a gamma counter. Additional tissue sections were stained with hematoxylin and eosin for comparison with the corresponding autoradiograms.
as §1, with “Bioresources. […]” for “Bioresources.”
(§12) Cells were seeded in quadruplicates at a density of 5,000 cells in 50 µ L medium per well in 96 well plates, grown overnight and treated with the indicated ligand concentrations (on top of the well, final volume 100 µ L). After 96 h, metabolic activity was determined by addition of 100 µ L medium containing AlamarBlue™ redox indicator (Thermo Fisher, Waltham, MA, US) to each well. After 3 –4 h, the resulting fluorescence was measured with an EnVision Multilabel Plate Reader (Perkin Elmer, Waltham, USA). […]

[10] = test system: H727 cells; experiment: metabolic activity (AlamarBlue); format: cell-based, human; conditions: 96 h, different concentrations
Procedure: as §11
as §1, with “Bioresources. […]” for “Bioresources.”
as §12

[11] = molecular target: AGTR1; set-up: method as in PMID 25313325; conditions: read-out: published Ki; cited from earlier work
[12] = test system: AGTR1-positive BON tumors; experiment: in vivo near-infrared fluorescent imaging, xenograft; set-up: species or system mice
Procedure: seeded with 15,000/50,000 cells per well.
(§13) free medium for 10 min at room tem perature. A buffer baseline was obtained on the dynamic mass
(§14) used and plotted with GraphPad Prism 5.04.
(§15) For in vivo receptor targeting, the near -infrared fluorescent
(§16) in 100 µ L 0.9 % NaCl per animal).
(§17) fluorescence intensities.
(§18) animal research authorities.
First Linear Peptidic Urotensin -II Receptor Agonist. J. Med. Chem. 2016 , 59, 10100–10112,

[13] = test system: receptor negative QGP-1 tumors; conditions: 1 nmol i.v., NIRF imaging
Procedure: as §13, §14, §15, §16, §17, §18
J. Med. Chem. 2016 , 59, 10100–10112,

[14] = molecular target: angiotensin II (Homo sapiens), P01019; experiment: competition
angiotensin II (Homo sapiens), P01019, sequence (P01019 whole entry, looked up): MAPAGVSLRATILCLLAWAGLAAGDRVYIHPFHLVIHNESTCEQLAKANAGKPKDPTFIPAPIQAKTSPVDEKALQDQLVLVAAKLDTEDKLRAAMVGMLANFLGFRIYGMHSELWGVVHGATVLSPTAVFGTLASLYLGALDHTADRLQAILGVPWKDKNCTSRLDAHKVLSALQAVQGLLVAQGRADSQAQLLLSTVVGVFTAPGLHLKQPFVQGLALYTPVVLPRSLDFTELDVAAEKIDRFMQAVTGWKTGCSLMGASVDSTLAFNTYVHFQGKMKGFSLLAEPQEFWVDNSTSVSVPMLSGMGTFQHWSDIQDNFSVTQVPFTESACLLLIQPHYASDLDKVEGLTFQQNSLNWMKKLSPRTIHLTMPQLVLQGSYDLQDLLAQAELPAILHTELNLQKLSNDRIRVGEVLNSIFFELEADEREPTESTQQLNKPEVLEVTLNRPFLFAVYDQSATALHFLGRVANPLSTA

[15] = molecular target: angiotensin II (Homo sapiens), P01019; experiment: competition; remark: listed apart in the source
[16] = molecular target: 125I-angiotensin II (Homo sapiens), P01019; experiment: radioligand
125I-angiotensin II (Homo sapiens), P01019, sequence (P01019 whole entry, looked up): as above

CC[C@H](C)[C@H](NC(=O)[C@H](Cc1ccc(O)cc1)NC(=O)[C@@H](NC(=O)[C@H](CCCNC(=N)N)NC(=O)[C@@H](N)CC(=O)O)C(C)C)C(=O)N[C@@H](Cc1c[nH]cn1)C(=O)N1CCC[C@H]1C(=O)N[C@@H](Cc1ccccc1)C(=O)O [ATII, angiotensin II]
EC50 ([1]; 24 h): 4.9 ± 5.2 nM

CCOc1nc2cccc(C(=O)O)c2n1Cc1ccc(-c2ccccc2-c2nc(=O)o[nH]2)cc1 [azilsartan]
serotonin (5HT) secretion [2]: did not modify

Cc1cc(Cn2cnc3c2C[C@@H](C(=O)O)N(C(=O)C(c2ccccc2)c2ccccc2)C3)ccc1N(C)C [PD123319]
effect on ATII-induced calcium signal [1]: did not influence
displacement of 125I-ATII binding [3]: not
displacement of 125I-ATII binding [4]: not
effect on ATII-induced calcium signal [5]: did not influence
displacement of 125I-ATII binding ([6]; pancreatic NEN tissues #1, #4, #6, #8): not
displacement of 125I-ATII binding ([6]; small-intestinal NEN tissues): unable to compete
displacement of 125I-ATII binding [7]: displaced

CCCCC(=O)N(Cc1ccc(-c2ccccc2-c2nnn[nH]2)cc1)[C@H](C(=O)O)C(C)C [valsartan]
effect on ATII-induced calcium signal [1]: significantly diminish
effect on ATII-induced calcium signal [5]: significantly diminish
effect on ATII-stimulated CgA secretion [8]: diminished
serotonin (5HT) secretion [2]: did not modify
metabolic activity [9]: no change
metabolic activity [10]: no change

saralasin
Ki [11]: 1 nM

CC(C)[C@H](NC(=O)[C@H](CCCNC(=N)N)NC(=O)CN(C)C(=O)CCC(=O)NCCCOCCOCCOCCCNC(=O)c1ccc2c(c1)C(C)(C)C(=CC=CC=CC=CC1=[N+](CCCCS(=O)(=O)[O-])c3ccccc3C1(C)C)N2CCCCS(=O)(=O)O)C(=O)N[C@@H](Cc1ccc(O)cc1)C(=O)N[C@H](C(=O)N[C@@H](Cc1c[nH]cn1)C(=O)N1CCC[C@H]1C(=O)N[C@@H](C)C(=O)O)C(C)C [saralasin–ITCC]
decrease of affinity by ITCC versus published Ki of saralasin [3]: 250 fold
accumulation in AGTR1-positive xenograft tumors ([12]; 1 nmol i.v., NIRF imaging): selective accumulation
ex vivo organ imaging ([12]; 6 hours after injection): accumulation in kidneys and liver
uptake in QGP-1 tumors [13]: Low non-significant uptake

B1: Angiotensin II receptor type 1, P30556 (protein)
chain: MILNSSTEDGIKRIQDDCPKAGRHNYIFVMIPTLYSIIFVVGIFGNSLVVIVIYFYMKLKTVASVFLLNLALADLCFLLTLPLWAVYTAMEYRWPFGNYLCKIASASVSFNLYASVFLLTCLSIDRYLAIVHPMKSRLRRTMLVAKVTCIIIWLLAGLASLPAIIHRNVFFIENTNITVCAFHYESQNSTLPIGLGLTKNILGFLFPFLIILTSYTLIWKALKKAYEIQKNKPRNDDIFKIIMAIVLFFFFSWIPHQIFTFLDVLIQLGIIRDCRIADIVDTAMPITICIAYFNNCLNPLFYGFLGKKFKRYFLQLLKYIPPKAKSHSNLSTKMSTLSYRPSDNVSSSTKKPAPCFEVE
Ki [14]: 0.1 nM
Ki [15]: 0.2 nM
Kd [16]: 0.6 nM
